According to US9751886B2, “4-amino-6-phenyl-6,7-dihydro[1,2,3]triazolo[1,5-A]pyrazine derivatives as inhibitors of beta-secretase (BACE)” (Janssen Pharmaceutica NV, priority 2013, dated 2017):

Key:
[1] = target: recombinant BACE1 protein (Homo sapiens (Human), UniProt P56817); assay: BACE1 Biochemical FRET based assay - Method 2; details: 0.04 μg/ml BACE1, 20 μM substrate, 450 min, pH 5.0
Text: This assay is a Fluorescence Resonance Energy Transfer Assay (FRET) based assay. The substrate for this assay is an APP derived 13 amino acids peptide that contains the ‘Swedish’ Lys-Met/Asn-Leu mutation of the amyloid precursor protein (APP) beta-secretase cleavage site. This substrate also contains two fluorophores: (7-methoxycoumarin-4-yl) acetic acid (Mca) is a fluorescent donor with excitation wavelength at 320 nm and emission at 405 nm and 2,4-Dinitrophenyl (Dnp) is a proprietary quencher acceptor. […] Upon cleavage by BACE1, the fluorophore Mca is separated from the quenching group Dnp, restoring the full fluorescence yield of the donor. The increase in fluorescence is linearly related to the rate of proteolysis.
Briefly in a 384-well format recombinant BACE1 protein in a final concentration of 0.04 μg/ml is incubated for 450 minutes at room temperature with 20 μM substrate in incubation buffer (50 mM Citrate buffer pH 5.0, 0.05% PEG) in the presence of compound or DMSO. Next the amount of proteolysis is directly measured by fluorescence measurement (excitation at 320 nm and emission at 405 nm) at different incubation times (0, 30, 60, 90, 120 and 450 min). For every experiment a time curve (every 30 min between 0 min and 120 min) is used to determine the time where we find the lowest basal signal of the high control. The signal at this time (Tx) is used to subtract from the signal at 450 min. Results are expressed in RFU, as difference between T450 and Tx.

[2] = tested on: Abeta 1-42 secreted by human neuroblastoma SKNBE2 cells expressing wild type hAPP695; assay: BACE1 cellular αLisa assay in SKNBE2 cells, Abeta 1-42; assay type: cell-based; details: Homo sapiens, 18 hours incubation, read-out: Cellular αLisa assay in SKNBE2 cells Abeta 42 pIC50 (converted)
Description: (§1) In two αLisa assays the levels of Abeta total and Abeta 1-42 produced and secreted into the medium of human neuroblastoma SKNBE2 cells are quantified. The assay is based on the human neuroblastoma SKNBE2 expressing the wild type Amyloid Precursor Protein (hAPP695). The compounds are diluted and added to these cells, incubated for 18 hours and then measurements of Abeta 1-42 and Abeta total are taken. Abeta total and Abeta 1-42 are measured by sandwich αLisa. αLisa is a sandwich assay using biotinylated antibody AbN/25 attached to streptavidin coated beads and antibody Ab4G8 or cAb42/26 conjugated acceptor beads for the detection of Abeta total and Abeta 1-42 respectively. In the presence of Abeta total or Abeta 1-42, the beads come into close proximity. The excitation of the donor beads provokes the release of singlet oxygen molecules that trigger a cascade of energy transfer in the acceptor beads, resulting in light emission.

[3] = tested on: Abeta total secreted by human neuroblastoma SKNBE2 cells expressing wild type hAPP695; assay: BACE1 cellular αLisa assay in SKNBE2 cells, Abeta total; assay type: cell-based; details: Homo sapiens, 18 hours incubation, read-out: Cellular αLisa assay in SKNBE2 cells Abetatotal pIC50 (converted)
Description: as §1

Sequence of recombinant BACE1 protein (P56817 46-501): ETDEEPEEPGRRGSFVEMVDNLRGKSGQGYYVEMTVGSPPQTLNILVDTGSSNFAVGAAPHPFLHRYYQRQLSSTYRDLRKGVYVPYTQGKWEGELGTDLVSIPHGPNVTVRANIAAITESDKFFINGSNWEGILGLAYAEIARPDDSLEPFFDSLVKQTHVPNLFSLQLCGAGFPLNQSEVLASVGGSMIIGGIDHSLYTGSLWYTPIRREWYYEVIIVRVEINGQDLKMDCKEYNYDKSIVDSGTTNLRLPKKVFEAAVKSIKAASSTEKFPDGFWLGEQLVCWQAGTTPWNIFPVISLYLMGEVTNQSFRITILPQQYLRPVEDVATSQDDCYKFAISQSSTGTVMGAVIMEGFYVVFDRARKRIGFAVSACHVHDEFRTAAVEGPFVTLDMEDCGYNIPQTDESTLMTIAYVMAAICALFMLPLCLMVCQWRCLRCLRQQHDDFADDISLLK

BACE1 Biochemical FRET based assay - Method 2 pIC50 [1]: 8.37
IC50 [2]: 4.47 nM
IC50 [3]: 3.24 nM
Structure (SMILES): C[C@@]1(c2cc(NC(=O)c3ccc(F)cn3)ccc2F)Cn2nncc2C(N)=N1 [Compound 1, N-{3-[(6R)-4-amino-6-methyl-6,7-dihydro[1,2,3]triazolo[1,5-a]pyrazin-6-yl]-4-fluorophenyl}-5-fluoropyridine-2-carboxamide]
